These results are taken from patent US20130012465A1 (Boehringer Ingelheim International GmbH, priority 2009, published 2013).

The EC50 is the concentration needed to bring the measured effect to its halfway point.

The structures appear in SMILES notation. Read-outs that look alike come from different tables or passages of the source.

One data set concerns SUM149 Xenografts. The data set is described as follows: triple negative, EGFR positive SUM149 Xenografts in mice. Format: in vivo.
The test system of a further data set is BT20. The experiment in a line: triple negative breast cell panel, EC50 2D/3D. Format: cell-based. The following applies: Homo sapiens, BT-20.
The subject of a further data set is HCC 70. The data set is described as follows: triple negative breast cell panel, EC50 2D/3D. Format: cell-based. The following applies: Homo sapiens, HCC70.
Another data set concerns MDA-MB-468. The experiment in a line: triple negative breast cell panel, EC50 2D/3D. The following applies: Homo sapiens; MDA-MB-468, 3D. Type of data set: cell-based.
Another data set deals with HCC 1806. The data set is described as follows: triple negative breast cell panel, EC50 2D/3D. The following applies: Homo sapiens, HCC1806. Format: cell-based.
The test system of data set [1] is HER2-negative, HR-positive mBC. The experiment in a line: Phase II clinical study, Cohort B. Type of data set: in vivo, human. As to the method: (§1) A Phase II, open-label, multicenter trial was conducted in Belgium and Germany. Two Cohorts of patients were included: • Cohort A: Patients with triple negative mBC • Cohort B: Patients with HER2-negative, HR-positive mBC. • Primary endpoint for Cohort A and B initially was objective response as determined by response evaluation criteria in solid tumours (RECIST) criteria, as described by P. Therasse et al., J Natl Cancer Inst 2000, 92, 205-216. For Cohort A this was modified by amendment to clinical benefit (CB), i.e. complete response (CR), partial response (PR) and stable disease (SD) for at least 4 courses. • Secondary endpoints were time to progression, progression-free survival (PFS), overall survival (OS), time to objective response, duration of objective response, safety and pharmacokintics (PK). Clinical benefit (CR, PR, SD) was a secondary endpoint for Cohort B. • A total of 80 patients was planned to be enrolled into the trial: 80, i.e. 40 patients per cohort. […] Additional predose plasma samples were taken on Day 15 of Course 1, on Day 1 of Course 2 and on Day 1 of all subsequent courses (Course 3 onwards).
(§2) Dose reduction to 40 mg/day and 30 mg/day was an option for patients experiencing certain drug-related AEs.
• Confirmed diagnosis of Stage IV HER2-negative metastatic breast cancer (HER22+ and fluorescence in situ hybridization-negative or HER21+ or negative) • Progression following no more than two lines of chemotherapy including adjuvant, not including hormone treatments for Cohort B • Age ≧18 years • Life expectancy of at least 6 months • Written informed consent • Eastern Cooperative Oncology Group (ECOG) performance score 0-2 • Measurable disease according to RECIST criteria • Availability of tumour samples (fresh or paraffin material) for EGFR-testing. • No prior treatment with EGFR/HER1 or HER2 inhibiting agent • Adequate liver, kidney and bone marrow function • No concomitant treatment with other investigational drugs • No other anti-cancer-therapy within four weeks prior to the first treatment with the trial drug. • Concurrent treatment with biphosphonates is allowed.
• ER-positive and/or PgR-positive patients: ER-status and PgR-status must be assessed by IHC and Allred (Harvey J M et al., J Clin Oncol 1999, 17(5), 1474-1481).

A further data set relates to HCC 1937. The experiment in a line: triple negative breast cell panel, EC50 2D/3D. Format: cell-based. The following applies: Homo sapiens, HCC1937.
Data set [2] deals with HER2-negative metastatic breast cancer. The experiment in a line: Phase II clinical study, all treated patients (safety, PK, exposure). Type of data set: in vivo, human. The procedure:
as §1, with “Two Cohorts of patients were included: • Cohort A: Patients with triple negative mBC • Cohort B: Patients with HER2-negative, HR-positive mBC. • Primary endpoint for Cohort A and B initially was objective response as determined by response evaluation criteria in solid tumours (RECIST) criteria, as described by P. Therasse et al., J Natl Cancer Inst 2000, 92, 205-216.” left out
as §2

The next data set deals with MDA-MB-231. The experiment in a line: triple negative breast cell panel, EC50 2D/3D. The settings on record: Homo sapiens. Type of data set: cell-based.
The next data set deals with SUM 149PT. The experiment in a line: triple negative breast cell panel, EC50 2D/3D. Format: cell-based. The following applies: Homo sapiens, SUM149PT.
Another data set deals with triple negative mBC. The following applies: Cohort A. The procedure: as §1, §2
• HR-negative patients: estrogen receptor (ER) status and progesterone receptor (PgR) status must be assessed by immunohistochemistry (IHC) and Allred (Harvey J M et al., J Clin Oncol 1999, 17(5), 1474-1481).

For the next data set, the system named is HCC 1143. The data set is described as follows: triple negative breast cell panel, EC50 2D/3D. Type of data set: cell-based. The following applies: Homo sapiens, HCC1143.
Another data set has as its system CAMA-1. The experiment in a line: triple negative breast cell panel, EC50 2D/3D. Type of data set: cell-based. The settings on record: Homo sapiens.
For another data set, the system named is BT 549. The experiment in a line: triple negative breast cell panel, EC50 2D/3D. Type of data set: cell-based. The following applies: Homo sapiens.
Where [3] appears, read: BT20, 2D, read-out: EC50 [nM] 2D.
The mark [4] stands for this setting: BT20, 3D, read-out: EC50 [nM] 3D.
Where [5] appears, read: HCC 70, 2D, read-out: EC50 [nM] 2D.
Setting [6] is: HCC 70, 3D, read-out: EC50 [nM] 3D.
Where [7] appears, read: HCC 1806, 2D, read-out: EC50 [nM] 2D.
The mark [8] stands for this setting: HCC 1806, 3D, read-out: EC50 [nM] 3D.
Setting [9] is: HCC 1937, 2D, read-out: EC50 [nM] 2D.
[10] abbreviates: HCC 1937, 3D, read-out: EC50 [nM] 3D.
The mark [11] stands for this setting: 50 treated patients, 50 mg/day oral.
The mark [12] stands for this setting: MDA-MB-231, 2D, read-out: EC50 [nM] 2D.
[13] abbreviates: MDA-MB-231, 3D, read-out: EC50 [nM] 3D.
The mark [14] stands for this setting: three patients with clinical benefit for >4 months.
The mark [15] stands for this setting: HCC 1143, 2D, read-out: EC50 [nM] 2D.
The mark [16] stands for this setting: HCC 1143, 3D, read-out: EC50 [nM] 3D.
[17] abbreviates: CAMA-1, 2D, read-out: EC50 [nM] 2D.
The mark [18] stands for this setting: CAMA-1, 3D, read-out: EC50 [nM] 3D.
Where [19] appears, read: BT 549, 2D, read-out: EC50 [nM] 2D.

For the molecule `C#Cc1cccc(Nc2ncnc3cc(OCCOC)c(OCCOC)cc23)c1` [erlotinib], the “T/C [%] Day 42” value in the data set with SUM149 Xenografts (75 mg/kg/d (MTD)) is 6%.

Turning to `CCOc1cc2ncc(C#N)c(Nc3ccc(OCc4ccccn4)c(Cl)c3)c2cc1NC(=O)/C=C/CN(C)C` [HKI-272], the “T/C [%] Day 42” value in the data set with SUM149 Xenografts (50 mg/kg/d (MTD)) came to 36%.

For the molecule `CN(C)C/C=C/C(=O)Nc1cc2c(Nc3ccc(F)c(Cl)c3)ncnc2cc1O[C@H]1CCOC1` [BIBW 2992, 4-[(3-chloro-4-fluorophenyl)amino]-6-{[4-(N,N-dimethylamino)-1-oxo-2-buten-1-yl]amino}-7-((S)-tetrahydrofuran-3-yloxy)-quinazo line], the EC50 was above 4000 nM in the data set with BT20 (setting [3]); 23 nM in the data set on BT20 (setting [4]); 571 nM in the data set on HCC 70 (setting [5]); above 1000 nM with HCC 70 (setting [6]); 1250 nM in the data set on MDA-MB-468; above 4000 nM in the data set on HCC 1806 (setting [7]). Further, the EC50 in the data set on HCC 1806 (setting [8]) is 47 nM; in the data set with HCC 1937 (setting [9]), above 4000 nM; in the data set with HCC 1937 (setting [10]) it was above 4000 nM; in the data set with MDA-MB-231 (setting [12]) it was above 10000 nM; in the data set with MDA-MB-231 (setting [13]), 2150 nM; in the data set with SUM 149PT, 17 nM. In addition, the EC50 was above 4000 nM with HCC 1143 (setting [15]); above 1000 nM in the data set with HCC 1143 (setting [16]); 234 nM in the data set with CAMA-1 (setting [17]); 277 nM in the data set on CAMA-1 (setting [18]); 2020 nM in the data set with BT 549 (setting [19]); 956 nM with BT 549 (BT 549, 3D, read-out: EC50 [nM] 3D). Moreover, the “patients discontinued due to disease progression” value in data set [1] is on record as 12 patients; in data set [2] (all 50 treated patients), “Thirty-one”; in the data set on triple negative mBC, 19 patients. The “objective response (OR), RECIST” value in data set [1] (50 mg/day oral) is reported as “No OR”; with triple negative mBC (50 mg/day oral), “No objective response”. The “patients with SD for ≧4 cycles” value in [1] (50 mg/day oral) is listed as 1 patient. Moreover, the “patients with a best response of SD” value in data set [1] (21 patients included, 50 mg/day oral) is given as 5 patients; with triple negative mBC (29 patients included, 50 mg/day oral), “Seven”. The “patients discontinued due to dose-reducing toxicities” value in data set [2] (50 treated patients) is reported as 15 patients. The “patients discontinued due to other AEs” value in data set [2] (50 treated patients) is given as “four”. In addition, the “patients discontinued treatment due to AEs” value in [2] (setting [11]) is “Nineteen”. Further, in data set [2] (setting [11]), the safety profile entry is given as “safety profile similar to other EGFR TKIs”. Moreover, the “patients remaining on treatment with SD for >4 cycles” value in the data set with triple negative mBC (50 mg/day oral) is listed as “three”. In addition, in the data set with triple negative mBC (29 patients), the “overall median PFS” value turned out to be 53 days. Moreover, the “mean PFS” value in the data set with triple negative mBC (setting [14]) is given as 217 days. Moreover, in the data set on triple negative mBC (setting [14]), the “median PFS” value came out at 184 days.

On to `CS(=O)(=O)CCNCc1ccc(-c2ccc3ncnc(Nc4ccc(OCc5cccc(F)c5)c(Cl)c4)c3c2)o1` [lapatinib, reference compound], for which the EC50 with BT20 (setting [3]) was above 4000 nM; with BT20 (setting [4]) it was 467 nM; with HCC 70 (setting [5]) it was above 1000 nM; with HCC 70 (setting [6]), above 1000 nM; with MDA-MB-468, above 1000 nM; in the data set on HCC 1806 (setting [7]), above 4000 nM. Besides, the EC50 is above 4000 nM in the data set with HCC 1806 (setting [8]); above 4000 nM in the data set on HCC 1937 (setting [9]); above 4000 nM in the data set with HCC 1937 (setting [10]); above 10000 nM in the data set on MDA-MB-231 (setting [12]); above 4000 nM with MDA-MB-231 (setting [13]); 1360 nM in the data set on SUM 149PT. Also, the EC50 in the data set on HCC 1143 (setting [15]) is above 4000 nM; with HCC 1143 (setting [16]), above 4000 nM; with CAMA-1 (setting [17]), above 1000 nM; in the data set on CAMA-1 (setting [18]) it was 3010 nM; with BT 549 (setting [19]), above 1000 nM. Besides, the “T/C [%] Day 42” value in the data set with SUM149 Xenografts (2 × 100 mg/kg/d (MTD)) is 25%.
